Measurements: ChEMBL document CHEMBL5346923, “Novel pyridinium cationic pleuromutilin analogues overcoming bacterial multidrug resistance” (Eur J Med Chem, 2023)
≈ marks a conversion by molar mass, not a printed value.

What was measured:
Type in all cases: functional
Streptococcus pneumoniae = test: Antibacterial activity against Streptococcus pneumoniae ATCC 49619 assessed as inhibition of bacterial growth measured after 24 hrs by MH broth based assay
Escherichia coli [1] = test: Antibacterial activity against Escherichia coli MG1655 assessed as inhibition of bacterial growth measured after 24 hrs by MH broth based assay
Bacillus subtilis = test: Antibacterial activity against Bacillus subtilis ATCC 6633 assessed as inhibition of bacterial growth measured after 24 hrs by MH broth based assay
Enterococcus = test: Antibacterial activity against vancomycin-resistant Enterococcus ATCC 700221 assessed as inhibition of bacterial growth measured after 24 hrs by MH broth based assay
Staphylococcus aureus [2] = test: Antibacterial activity against Staphylococcus aureus ATCC 29213 assessed as inhibition of bacterial growth measured after 24 hrs by MH broth based assay
Escherichia coli [3] = test: Antibacterial activity against Escherichia coli MG1655 harbouring acrB gene assessed as inhibition of bacterial growth measured after 24 hrs by MH broth based assay
[4] = tested on: Staphylococcus epidermidis; test: Antibacterial activity against methicillin-resistant Staphylococcus epidermidis ATCC 51625 assessed as inhibition of bacterial growth measured after 24 hrs by MH broth based assay
Escherichia coli [5] = test: Antibacterial activity against Escherichia coli ATCC 25922 assessed as inhibition of bacterial growth measured after 24 hrs by MH broth based assay
Klebsiella pneumoniae = test: Antibacterial activity against Klebsiella pneumonia CMCC (B) 46117 assessed as inhibition of bacterial growth measured after 24 hrs by MH broth based assay
Staphylococcus aureus [6] = test: Antibacterial activity against methicillin-resistant Staphylococcus aureus ATCC 43300 assessed as inhibition of bacterial growth measured after 24 hrs by MH broth based assay
Proteus = test: Antibacterial activity against Proteus CMCC (B) 49027 assessed as inhibition of bacterial growth measured after 24 hrs by MH broth based assay

SMILES | MIC (Streptococcus pneumoniae) | MIC (Escherichia coli [1]) | MIC (Bacillus subtilis) | MIC (Enterococcus) | MIC (Staphylococcus aureus [2]) | MIC (Escherichia coli [3]) | MIC [4] | MIC (Escherichia coli [5]) | MIC (Klebsiella pneumoniae) | MIC (Staphylococcus aureus [6]) | MIC (Proteus)
C=C[C@]1(C)C[C@@H](OC(=O)CSc2cc[n+](CC(=O)N3CCCC3)cc2)[C@]2(C)[C@H](C)CC[C@]3(CCC(=O)[C@H]32)[C@@H](C)[C@@H]1O.[I-] | 1 µg/mL | 64 µg/mL | > 64 µg/mL | 64 µg/mL | 4 µg/mL | 4 µg/mL | 2 µg/mL | 64 µg/mL | 64 µg/mL | 4 µg/mL | > 64 µg/mL
C=C[C@]1(C)C[C@@H](OC(=O)CSc2cc[n+](CC(=O)NCCc3ccc(O)cc3)cc2)[C@]2(C)[C@H](C)CC[C@]3(CCC(=O)[C@H]32)[C@@H](C)[C@@H]1O.[I-] | 0.25 µg/mL | 64 µg/mL | > 64 µg/mL | 64 µg/mL | 0.5 µg/mL | 1 µg/mL | 0.25 µg/mL | 64 µg/mL | 32 µg/mL | 0.5 µg/mL | > 64 µg/mL
C=C[C@]1(C)C[C@@H](OC(=O)CSc2cc[n+](Cc3ccc(C(=O)OC(C)(C)C)cc3)cc2)[C@]2(C)[C@H](C)CC[C@]3(CCC(=O)[C@H]32)[C@@H](C)[C@@H]1O.[I-] | 0.25 µg/mL | 64 µg/mL | 64 µg/mL | 64 µg/mL | 1 µg/mL | 4 µg/mL | 0.5 µg/mL | 64 µg/mL | 64 µg/mL | 1 µg/mL | > 64 µg/mL
C=C[C@]1(C)C[C@@H](OC(=O)CSc2cc[n+](CCCCC(=O)O)cc2)[C@]2(C)[C@H](C)CC[C@]3(CCC(=O)[C@H]32)[C@@H](C)[C@@H]1O.[I-] | 2 µg/mL | 64 µg/mL | > 64 µg/mL | 64 µg/mL | 8 µg/mL | 16 µg/mL | 4 µg/mL | > 64 µg/mL | > 64 µg/mL | 16 µg/mL | > 64 µg/mL
C=CCC[n+]1ccc(SCC(=O)O[C@@H]2C[C@@](C)(C=C)[C@@H](O)[C@H](C)[C@]34CCC(=O)[C@H]3[C@@]2(C)[C@H](C)CC4)cc1.[I-] | 0.125 µg/mL | 32 µg/mL | 64 µg/mL | 16 µg/mL | 0.25 µg/mL | 0.25 µg/mL | 0.25 µg/mL | 64 µg/mL | 16 µg/mL | 0.25 µg/mL | 64 µg/mL
C=C[C@]1(C)C[C@@H](OC(=O)CSc2cc[n+](CC(=O)N3CCS(=O)(=O)CC3)cc2)[C@]2(C)[C@H](C)CC[C@]3(CCC(=O)[C@H]32)[C@@H](C)[C@@H]1O.[I-] | 2 µg/mL | 32 µg/mL | > 64 µg/mL | 64 µg/mL | 8 µg/mL | 16 µg/mL | 4 µg/mL | > 64 µg/mL | > 64 µg/mL | 8 µg/mL | > 64 µg/mL
C=C[C@]1(C)C[C@@H](OC(=O)CSc2cc[n+](CC(=O)N3CCCCC3)cc2)[C@]2(C)[C@H](C)CC[C@]3(CCC(=O)[C@H]32)[C@@H](C)[C@@H]1O.[I-] | 0.125 µg/mL | 64 µg/mL | > 64 µg/mL | 64 µg/mL | 0.25 µg/mL | 2 µg/mL | 0.125 µg/mL | 64 µg/mL | 64 µg/mL | 0.25 µg/mL | > 64 µg/mL
C=C[C@]1(C)C[C@@H](OC(=O)CSc2cc[n+](CCCCCC(=O)O)cc2)[C@]2(C)[C@H](C)CC[C@]3(CCC(=O)[C@H]32)[C@@H](C)[C@@H]1O.[I-] | 4 µg/mL | 64 µg/mL | > 64 µg/mL | 64 µg/mL | 8 µg/mL | 32 µg/mL | 8 µg/mL | > 64 µg/mL | > 64 µg/mL | 16 µg/mL | > 64 µg/mL
C#CCC[n+]1ccc(SCC(=O)O[C@@H]2C[C@@](C)(C=C)[C@@H](O)[C@H](C)[C@]34CCC(=O)[C@H]3[C@@]2(C)[C@H](C)CC4)cc1.[I-] | 0.125 µg/mL | 64 µg/mL | 64 µg/mL | 64 µg/mL | 0.5 µg/mL | 1 µg/mL | 0.25 µg/mL | 64 µg/mL | 64 µg/mL | 0.5 µg/mL | > 64 µg/mL
C=C[C@]1(C)C[C@@H](OC(=O)CSc2cc[n+](CC(=O)N3CCC(CO)CC3)cc2)[C@]2(C)[C@H](C)CC[C@]3(CCC(=O)[C@H]32)[C@@H](C)[C@@H]1O.[I-] | 2 µg/mL | 64 µg/mL | 64 µg/mL | 64 µg/mL | 2 µg/mL | 16 µg/mL | 4 µg/mL | 64 µg/mL | 64 µg/mL | 2 µg/mL | > 64 µg/mL
C=C[C@]1(C)C[C@@H](OC(=O)CSc2cc[n+](Cc3ccc(C)cc3)cc2)[C@]2(C)[C@H](C)CC[C@]3(CCC(=O)[C@H]32)[C@@H](C)[C@@H]1O.[I-] | < 0.031 µg/mL | 64 µg/mL | > 64 µg/mL | 64 µg/mL | 0.5 µg/mL | 2 µg/mL | 0.063 µg/mL | 64 µg/mL | 32 µg/mL | 0.5 µg/mL | > 64 µg/mL
C=C[C@]1(C)C[C@@H](OC(=O)CSc2cc[n+](CCCCCCCCCCC(=O)O)cc2)[C@]2(C)[C@H](C)CC[C@]3(CCC(=O)[C@H]32)[C@@H](C)[C@@H]1O.[I-] | 0.5 µg/mL | 64 µg/mL | 64 µg/mL | 64 µg/mL | 0.5 µg/mL | 32 µg/mL | 2 µg/mL | 64 µg/mL | 64 µg/mL | 0.5 µg/mL | 64 µg/mL
C=C[C@]1(C)C[C@@H](OC(=O)CSc2cc[n+](CC3CCCO3)cc2)[C@]2(C)[C@H](C)CC[C@]3(CCC(=O)[C@H]32)[C@@H](C)[C@@H]1O.[I-] (stereo partly drawn) | 0.125 µg/mL | 64 µg/mL | 64 µg/mL | 64 µg/mL | 1 µg/mL | 2 µg/mL | 0.25 µg/mL | 64 µg/mL | 64 µg/mL | 1 µg/mL | > 64 µg/mL
C=C[C@]1(C)C[C@@H](OC(=O)CSc2cc[n+](CCCO)cc2)[C@]2(C)[C@H](C)CC[C@]3(CCC(=O)[C@H]32)[C@@H](C)[C@@H]1O.[I-] | 0.25 µg/mL | 64 µg/mL | 64 µg/mL | 64 µg/mL | 1 µg/mL | 0.5 µg/mL | 0.5 µg/mL | 64 µg/mL | 32 µg/mL | 1 µg/mL | > 64 µg/mL
C=C[C@]1(C)C[C@@H](OC(=O)CSc2cc[n+](Cc3cccc(NC(=O)OC(C)(C)C)c3)cc2)[C@]2(C)[C@H](C)CC[C@]3(CCC(=O)[C@H]32)[C@@H](C)[C@@H]1O.[I-] | < 0.031 µg/mL | 64 µg/mL | 64 µg/mL | 16 µg/mL | 0.5 µg/mL | 4 µg/mL | 0.125 µg/mL | 64 µg/mL | 64 µg/mL | 0.5 µg/mL | > 64 µg/mL
C=C[C@]1(C)C[C@@H](OC(=O)CSc2cc[n+](COC)cc2)[C@]2(C)[C@H](C)CC[C@]3(CCC(=O)[C@H]32)[C@@H](C)[C@@H]1O.[I-] | 0.25 µg/mL | 64 µg/mL | 64 µg/mL | 32 µg/mL | 0.25 µg/mL | 1 µg/mL | 0.5 µg/mL | 64 µg/mL | 64 µg/mL | 0.25 µg/mL | > 64 µg/mL
C=C[C@]1(C)C[C@@H](OC(=O)CSc2cc[n+](CC(=O)N(Cc3ccccc3)Cc3ccccc3)cc2)[C@]2(C)[C@H](C)CC[C@]3(CCC(=O)[C@H]32)[C@@H](C)[C@@H]1O.[I-] | < 0.031 µg/mL | 64 µg/mL | 16 µg/mL | 64 µg/mL | 0.25 µg/mL | 4 µg/mL | 0.063 µg/mL | 64 µg/mL | 32 µg/mL | 0.25 µg/mL | > 64 µg/mL
C=C[C@]1(C)C[C@@H](OC(=O)CSc2cc[n+](CC(C)C)cc2)[C@]2(C)[C@H](C)CC[C@]3(CCC(=O)[C@H]32)[C@@H](C)[C@@H]1O.[I-] | 0.25 µg/mL | 64 µg/mL | 64 µg/mL | 64 µg/mL | 0.5 µg/mL | 2 µg/mL | 0.5 µg/mL | 64 µg/mL | 64 µg/mL | 0.5 µg/mL | > 64 µg/mL
C=C[C@]1(C)C[C@@H](OC(=O)CSc2cc[n+](CC(=O)O)cc2)[C@]2(C)[C@H](C)CC[C@]3(CCC(=O)[C@H]32)[C@@H](C)[C@@H]1O.[I-] | 2 µg/mL | > 64 µg/mL | > 64 µg/mL | 64 µg/mL | 8 µg/mL | 32 µg/mL | 2 µg/mL | > 64 µg/mL | > 64 µg/mL | 4 µg/mL | > 64 µg/mL
CN[C@H](CC(C)C)C(=O)N[C@H]1C(=O)N[C@@H](CC(N)=O)C(=O)N[C@H]2C(=O)N[C@H]3C(=O)N[C@H](C(=O)N[C@H](C(=O)O)c4cc(O)cc(O)c4-c4cc3ccc4O)[C@H](O)c3ccc(c(Cl)c3)Oc3cc2cc(c3O[C@@H]2O[C@H](CO)[C@@H](O)[C@H](O)[C@H]2O[C@H]2C[C@](C)(N)[C@H](O)[C@H](C)O2)Oc2ccc(cc2Cl)[C@H]1O [VANCOMYCIN] | 0.25 µg/mL (≈ 0.173 µM) | > 64 µg/mL | 0.125 µg/mL (≈ 0.0863 µM) | 64 µg/mL (≈ 44.2 µM) |  | > 64 µg/mL | 0.5 µg/mL (≈ 0.345 µM) | > 64 µg/mL | > 64 µg/mL |  | > 64 µg/mL
